From publication PMC3958853, “Characterization and Antioxidant Properties of Six Algerian Propolis Extracts: Ethyl Acetate Extracts Inhibit Myeloperoxidase Activity” (International Journal of Molecular Sciences, 2014)
Several values for one entry are separate records, joined by “and”; a condition that tells them apart may be missing. Equal values may be shown once.

target: T1, recombinant MPO (Homo sapiens, UniProt P05164); experiment: not given; conditions: stated among literature reports, no reference given; cited from earlier work
T1 construct: made in house
T1 sequence (P05164 49-745): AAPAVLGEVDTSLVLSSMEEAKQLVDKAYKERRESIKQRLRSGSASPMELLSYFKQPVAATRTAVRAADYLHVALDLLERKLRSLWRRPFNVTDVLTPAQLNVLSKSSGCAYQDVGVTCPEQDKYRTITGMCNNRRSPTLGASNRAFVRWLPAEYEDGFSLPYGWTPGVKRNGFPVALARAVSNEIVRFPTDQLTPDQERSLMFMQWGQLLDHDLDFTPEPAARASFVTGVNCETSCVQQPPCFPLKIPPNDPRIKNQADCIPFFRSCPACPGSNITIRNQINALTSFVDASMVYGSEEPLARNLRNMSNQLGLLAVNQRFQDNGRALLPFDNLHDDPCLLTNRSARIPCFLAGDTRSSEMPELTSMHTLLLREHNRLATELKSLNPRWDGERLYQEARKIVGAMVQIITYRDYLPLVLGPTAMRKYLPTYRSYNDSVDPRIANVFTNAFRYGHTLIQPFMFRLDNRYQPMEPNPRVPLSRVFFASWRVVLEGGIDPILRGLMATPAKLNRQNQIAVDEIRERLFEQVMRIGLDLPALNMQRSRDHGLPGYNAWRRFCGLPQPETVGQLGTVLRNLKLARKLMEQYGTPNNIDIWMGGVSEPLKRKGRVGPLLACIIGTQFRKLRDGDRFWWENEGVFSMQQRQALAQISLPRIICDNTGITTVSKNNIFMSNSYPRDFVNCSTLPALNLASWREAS

**Q.** Which IC50 does the source give for `O=c1c(O)c(-c2ccc(O)c(O)c2)oc2cc(O)cc(O)c12` [Quercetin] here?
**A.** Its IC50 is about 5 µM.

target: T1, recombinant MPO; experiment: Myeloperoxidase inhibition assay (taurine chloramine); assay type: biochemical; conditions: pure compounds, read-out: IC50 (μM) ± SD for MPO
Description: The recombinant MPO was produced as previously described Moguilevsky et al. and each batch solution was characterized by its protein concentration (mg/mL), its activity (U/mL), and its specific activity (U/mg). The chlorination activity was determined according to Hewson and Hager, (1979). Human plasma served for the isolation of LDL by ultracentrifugation according to Havel et al. (1955). Before oxidation, the LDL fraction (1.019 < d < 1.067 g/mL) was desalted by two consecutive passages through PD10 gel-filtration columns (Amersham Biosciences, Hoevelaken, The Netherlands) using PBS buffer. The different steps were carried out in the dark, and the protein concentration was measured by the Lowry assay for both MPO and LDL [57].
The assay was based on the production of taurine chloramine by the MPO/H2O2/Cl^− system which can be determined by means of 5-thio-2-nitrobenzoic acid (TNB) in the presence of a selected inhibitor at defined concentration. The reaction mixture contained the following reagents in a final volume of 200 μL:pH 7.4 phosphate buffer (10 mM PO4^3−/300 mM NaCl), taurine (15 mM), extraction solutions of propolis, and the fixed amount of the recombinant MPO (6 μL of MPO batch solution diluted 2.5 times, 40 nM). When necessary, the volume was adjusted with water. This mixture was incubated at 37 °C and the reaction initiated with 10.0 μL of H2O2 (100 μM). After 5 min, the reaction was stopped by the addition of 10 μL of catalase (8 U/μL). To determine the amount of taurine chloramines produced, 50 μL of 1.35 mM solution of TNB were added and the volume adjusted to 300 μL with water. Then, the absorbance of the solutions was measured at 412 nm with a microplate reader and the curve of the absorbance as a function of the inhibitor concentration was plotted. To remove the influence of HOCl scavenging carried out by the extracts, the same procedure of MPO inhibition assay was done but with addition of 6 μL of HOCl (60 μM) instead of the solution of MPO and H2O2.

**Q.** Which IC50 does the source give for `O=C(O)/C=C/c1ccc(O)c(O)c1` [Caffeic acid] here?
**A.** Its IC50 is over 10 µM.

**Q.** With `O=c1cc(-c2ccccc2)oc2cc(O)cc(O)c12` [Chrysin] as the compound, how does the IC50 read?
**A.** The IC50 was 8 ± 2 µM.

**Q.** Which IC50 does the source give for `O=c1c(-c2ccc(O)cc2)coc2cc(O)cc(O)c12` [Genistein] here?
**A.** The IC50 was over 10 µM.

**Q.** Which IC50 does the source give for `O=C(O)/C=C/c1ccccc1` [Cinnamic acid] here?
**A.** Its IC50 is 9 ± 4 µM.

**Q.** For `COc1cc(/C=C/C(=O)O)ccc1O` [Ferulic acid], which IC50 is on record?
**A.** Its IC50 is 6 ± 3 µM.

**Q.** For `O=c1c(O)c(-c2ccccc2)oc2cc(O)cc(O)c12` [Galangin], which IC50 is on record?
**A.** The IC50 was over 10 µM.

**Q.** Which IC50 does the source give for `O=c1c(O)c(-c2ccc(O)cc2)oc2cc(O)cc(O)c12` [Kaempferol] here?
**A.** The IC50 was 4.1 µM and 4 µM.

**Q.** For `CC(C)c1c(O)ccc2c1CC[C@H]1C(C)(C)CCC[C@]21C` [Totarol], which IC50 is on record?
**A.** Its IC50 is over 10 µM.

**Q.** Which IC50 does the source give for `COc1ccc(-c2cc(=O)c3c(O)cc(O)cc3o2)cc1` [Acacetin] here?
**A.** The IC50 was 9 ± 2 µM.
